Common to all, as to assay: growth of human tumour cells (NCI), 48 h
Assay [1] concerns HT-29.
In assay [2] the test system is SK-MEL-28.
The subject of assay [3] is HOP-62.
Assay [4] relates to OVCAR-3.
For assay [5], the system named is OVCAR-8.
Assay [6] concerns UO-31.
In assay [7] the test system is Malme-3M.
Assay [8] relates to SF-539.
The test system of assay [9] is M14.
The test system of assay [10] is COLO 205.
Assay [11] relates to SNB-75.
In assay [12] the test system is KM12.
In assay [13] the test system is SK-OV-3.
The test system of assay [14] is ACHN.
The test system of assay [15] is 786-0.
Assay [16] concerns NCI-H23.

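In this assay, cells in 96-well plates receive the compound at five concentrations for 48 hours. Endpoints are linearly interpolated between the surrounding concentrations. At the GI50, growth is halved.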 Activity calls are given as the source filed them. Rule as the data show it: active = GI50 up to about 1.1 µM and inactive = higher.

For `COc1ccc2c(c1)[n+]([O-])c(-c1ccc(OC)c(OC)c1)c(N)[n+]2[O-]`, the GI50 in assay [1] is 52.1 µM (inactive); in [2], 25.4 µM (inactive); in [3], > 100 µM (inactive); in assay [4], > 100 µM (inactive); in assay [5], > 100 µM (inactive); in assay [6] it was > 100 µM (inactive). Besides, the GI50 is 46.3 µM (inactive) in assay [7]; 29.4 µM (inactive) in [8]; 57.4 µM (inactive) in assay [9]; 18.7 µM (inactive) in assay [10]; > 100 µM (inactive) in assay [11]; 98.2 µM (inactive) in [12]. The GI50 is > 100 µM (inactive) in [13], 51.3 µM (inactive) in assay [14], > 100 µM (inactive) in assay [15] and 21.2 µM (inactive) in assay [16].
Take `Cc1cc(O)nc(NNC(C#N)c2ccc(N(C)C)cc2)n1` (centres undefined): the GI50 in [1], in [2], in assay [3], in assay [4], in [5] and in assay [6] was > 100 µM (inactive) throughout. Moreover, the GI50 in assay [7], in assay [8], in assay [9], in [10], in assay [11] and in assay [12] was > 100 µM (inactive) in each case. Moreover, the GI50 in assay [13], in assay [14], in assay [15] and in assay [16] was > 100 µM (inactive) in each case.
As for `CCOC(=O)C(=Cc1cc(OC)ccc1OC)C(=O)OCC`, the GI50 in [1] was 3.85 µM (inactive); in [2] it was 4.71 µM (inactive); in assay [3], 10.4 µM (inactive); in [4], 10.7 µM (inactive); in [5], 4.72 µM (inactive); in assay [7] it was 10.9 µM (inactive). Besides, the GI50 in assay [8] was 4.1 µM (inactive); in [9], 11.6 µM (inactive); in assay [10] it was 4.88 µM (inactive); in assay [11], 1.67 µM (inactive); in [12], 6.53 µM (inactive); in assay [13] it was 15.8 µM (inactive). Also, the GI50 was 11.9 µM (inactive) in assay [14], 3.56 µM (inactive) in assay [15] and 3.03 µM (inactive) in [16].
As to `Fc1ccc(C2SCc3nc4ccccc4n32)cc1F` (centres undefined), the GI50 in assay [2] is 23.4 µM (inactive); in [3] it was 35.8 µM (inactive); in [4] it was 26.9 µM (inactive); in assay [5] it was 33.8 µM (inactive); in assay [6] it was 13.6 µM (inactive); in assay [7], 25.9 µM (inactive). Also, the GI50 is 34 µM (inactive) in assay [8]; 25.7 µM (inactive) in assay [9]; 27.6 µM (inactive) in [10]; 20.1 µM (inactive) in assay [11]; 27.6 µM (inactive) in assay [12]; 46.5 µM (inactive) in [13]. In addition, the figures for the GI50 in [14], in assay [15] and in assay [16] were 30 µM (inactive), 55.3 µM (inactive) and 21.1 µM (inactive), respectively.
With `CC1CC(=O)C(CC(=O)O)C1C(C(=O)C(=O)Nc1c(C#N)cccc1[N+](=O)[O-])[N+](=O)[O-]` (centres undefined), the GI50 in assay [1] is > 100 µM (inactive); in [2], > 100 µM (inactive); in assay [3], > 100 µM (inactive); in assay [4] it was > 100 µM (inactive); in assay [5], > 100 µM (inactive); in assay [6] it was 57.3 µM (inactive). Besides, the GI50 in assay [7], in assay [8], in assay [9], in assay [10], in assay [11] and in assay [12] was > 100 µM (inactive) each time. The GI50 in [13], in assay [14], in assay [15] and in assay [16] was > 100 µM (inactive) each time.
For the compound `O=C(CC1(O)C(=O)Nc2ccc([N+](=O)[O-])cc21)c1ccncc1` (centres undefined), the GI50 was 34 µM (inactive) in assay [1]; 32.3 µM (inactive) in [2]; > 100 µM (inactive) in assay [3]; 25.2 µM (inactive) in assay [4]; 46.2 µM (inactive) in assay [5]; 56.1 µM (inactive) in assay [6]. Further, the GI50 in assay [7] is 21.8 µM (inactive); in assay [8], 51.3 µM (inactive); in assay [9], 51.6 µM (inactive); in [10], 77.1 µM (inactive); in assay [11] it was 26.1 µM (inactive); in assay [12], 39 µM (inactive). Also, the GI50 in assay [13] was > 100 µM (inactive); in [14] it was 43.3 µM (inactive); in assay [15], 69.7 µM (inactive); in assay [16], 22.1 µM (inactive).
Turning to `CC(c1ccccc1)C(O)S(=O)(=O)O` (centres undefined), the GI50 in assay [1], in assay [2], in assay [4], in assay [5], in assay [6] and in assay [7] was > 100 µM (inactive) each time. In addition, the GI50 is > 100 µM (inactive) in assay [8]; > 100 µM (inactive) in assay [9]; > 100 µM (inactive) in assay [10]; 43.7 µM (inactive) in [11]; > 100 µM (inactive) in assay [12]; > 100 µM (inactive) in assay [13]. In addition, the GI50 in [14], in [15] and in [16] was > 100 µM (inactive) in each case.
As to `COC(=O)CCC(NC(=S)N/N=C(\C)c1ccco1)C(=O)OC` (centres undefined), the GI50 in [1], in [2], in assay [3], in assay [4], in [5] and in assay [6] was > 100 µM (inactive) each time. Besides, the GI50 in assay [7], in [8], in assay [9], in assay [10], in assay [11] and in [12] was > 100 µM (inactive) throughout. The GI50 in assay [13], in assay [14], in assay [15] and in assay [16] was > 100 µM (inactive) throughout.
As for `CCCCCCCCCCCCCC(=O)O[C@H]1CC[C@H](NC(=O)[C@H](OC)[C@H](O)[C@@H](O)[C@H](O)/C=C/C(C)C)C(=O)N(C)C1` [BENGAMIDE B], the GI50 is 0.00479 µM (active) in assay [1]; 0.0113 µM (active) in [2]; 0.00809 µM (active) in assay [3]; 0.00643 µM (active) in [4]; 0.00782 µM (active) in [5]; 0.0208 µM (active) in assay [6]. The GI50 in [7] was 0.0362 µM (active); in assay [8], 0.0108 µM (active); in assay [9], 0.0128 µM (active); in [10] it was 0.00259 µM (active); in assay [11] it was 0.105 µM (active); in assay [12], 0.00418 µM (active). Also, the GI50 in [13] was 0.0721 µM (active); in [14], 0.00261 µM (active); in assay [15], 0.00457 µM (active); in assay [16], 0.00977 µM (active).
Turning to `COc1ccc(CC2NCCc3cc(OC)c(OC)cc32)cc1` (centres undefined), the GI50 is > 100 µM (inactive) in [1]; > 100 µM (inactive) in assay [2]; > 100 µM (inactive) in assay [3]; > 100 µM (inactive) in [4]; > 100 µM (inactive) in assay [5]; > 85.3 µM (inactive) in assay [6]. In addition, the GI50 in assay [7], in assay [8], in assay [9], in assay [10], in assay [11] and in [12] was > 100 µM (inactive) each time. Moreover, the GI50 in assay [13], in assay [14], in assay [15] and in assay [16] was > 100 µM (inactive) each time.
Turning to `C[Si](C)(C)/C(Br)=C\CCN1C(=O)CCC1=O`, the GI50 in assay [1], in assay [2], in assay [3], in assay [4], in assay [5] and in assay [6] was > 100 µM (inactive) each time. For the same compound, the GI50 in assay [7], in assay [8], in assay [9], in assay [10], in [11] and in assay [12] was > 100 µM (inactive) in each case. Also, the GI50 in assay [13], in [14], in assay [15] and in [16] was > 100 µM (inactive) each time.
For the compound `CC(=O)NS(=O)(=O)c1ccc(NC(=O)COC(=O)c2cccc3c(=O)c4ccccc4[nH]c23)cc1`, the GI50 in assay [1] was > 100 µM (inactive); in assay [2], > 100 µM (inactive); in assay [3], > 100 µM (inactive); in [4], 92.5 µM (inactive); in assay [5], > 100 µM (inactive); in assay [6] it was > 100 µM (inactive). Moreover, the GI50 in assay [7], in [8], in [9], in [10], in [11] and in assay [12] was > 100 µM (inactive) in each case. Also, the GI50 in assay [13], in [14], in assay [15] and in [16] was > 100 µM (inactive) throughout.

These data come from ChEMBL document CHEMBL1201862, “PubChem BioAssay data set” (2004).
